Test results reported in patent US6461997B1, “Triazole sulfones having herbicidal activity” (Monsanto Technology LLC, priority 1999, dated 2002).

How the values were obtained:
[1] = tested on: ALOMY (blackgrass); assay: Pre-emergence herbicidal activity, cool season; type: in vivo, Alopecurus myosuroides; conditions: GR80 = lowest tested rate (300, 100, 30, 10 g/ha) with 80% or greater inhibition; approx. 14 days after treating; 18/13° C.
Method in brief: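 Herbicidal efficacy was judged visually as percent inhibition compared with untreated plants some 14 days after treatment, giving GR80 over doses of 10 to 300 g/ha. Proso millet and crabgrass grew at 30/21 °C; blackgrass and wild buckwheat grew at 18/13 °C.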

[2] = tested on: soybean (GLYMX); assay: Selectivity test, PPI, warm season crop; type: in vivo, Glycine max; conditions: PPI application
Description: (§1) A pre-prepared topsoil mixture (described above) was placed in a pot and compacted to a depth of 1.0 to 1.25 cm from the top of the pot. Seeds of each of several monocotyledonous and dicotyledonous annual plant species were placed on top of the soil. A sufficient quantity of soil to cover the seeds and level fill the pot was weighed into an open container. A known amount of the test compound was dissolved or suspended in an organic solvent and applied by spraying to this cover soil. The cover soil was thoroughly mixed to distribute the test compound throughout the cover soil, and was then applied as a cover layer over the seeds. Untreated soil was used as a cover layer for control pots. After treatment the plants were placed in a greenhouse where they received 0.64 cm of overhead irrigation. All subsequent watering consisted of a light overhead mist and/or subirrigation as needed for germination and growth. Tables 9 and 10 below relate to warm season plant species which were placed after pre-emergence treatment in a greenhouse with a 30/21° C. day/night temperature regime. Tables 11 and 12 below relates to cool season plant species placed after pre-emergence treatment in a greenhouse or growth chamber with an 18/13° C. day/night temperature regime. Only the compounds of Examples 1, 6, 8, 11, 13 and 15-20 were included in PPI tests.
(§2) Approximately 14 days after planting and treating, the plants were observed and herbicidal efficacy recorded as percent inhibition by comparison with untreated plants.
Additional pre-emergence and PPI tests were conducted by the procedures described above, on warm and cool season weed species in the presence of crop species, to assess herbicidal selectivity. Crop species included in warm season tests were corn (Zea mays, ZEAMX), rice (Oryza sativa, ORYSA) and soybean (Glycine max, GLYMX). Crop species included in cool season tests were wheat (Triticum aestivum, TRZAW), barley (Hordeunm vulgare, HORVX) and oilseed rape (Brassica napus, BRSNS).
Tables 15 and 16 relate to pre-emergence and PPI tests respectively on warm season species. Table 17 relates to pre-emergence tests on cool season species.

[3] = tested on: SOLNI (black nightshade); assay: Pre-emergence herbicidal activity, warm season; type: in vivo, Solanum nigrum; conditions: GR80 = lowest tested rate (300, 100, 30, 10 g/ha) with 80% or greater inhibition; approx. 14 days after treating; 30/21° C.
Method in brief: (§3)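 Seeds sown in sterilised fertilised topsoil received surface-applied compound in 50:50 acetone/water, typically at 300, 100, 30 and 10 g/ha, then greenhouse-grown at 30/21° C (warm-season species) or 18/13° C (cool-season species). Percent inhibition versus untreated plants was scored at about 14 days, giving GR80; an asterisk marks activity short of 80% at the top rate.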

[4] = tested on: ALOMY (blackgrass); assay: Post-emergence herbicidal activity, cool season; type: in vivo, Alopecurus myosuroides; conditions: abraded plants sprayed at 300, 100, 30 and 10 g/ha; about 14 days after treatment
Method in brief: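 Abraded seedling foliage receives a spray of test compound at four rates, 300 to 10 g/ha, in 50:50 acetone/water at 3,100 l/ha. After about 14 days in an 18/13° C. day/night greenhouse, inhibition is scored against abraded untreated controls and expressed as GR80.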

[5] = tested on: CHEAL (common lambsquarters); assay: Pre-emergence herbicidal activity, warm season; type: in vivo, Chenopodium album; conditions: GR80 = lowest tested rate (300, 100, 30, 10 g/ha) with 80% or greater inhibition; approx. 14 days after treating; 30/21° C.
Method in brief: as §3

[6] = tested on: XANST (cocklebur); assay: Pre-plant incorporated (PPI) herbicidal activity, warm season; type: in vivo, Xanthium strumarium; conditions: PPI application
Description: In another set of tests, the pre-plant incorporated (PPI) activity of compounds of this invention was evaluated on the same species as for the pre-emergence tests described above. In the PPI tests the following procedure, designed to simulate PPI application, was used.
as §1, §2

Compound | Pre-emergence activity (GR80) ALOMY [1] [g/ha] | Percent inhibition GLYMX ([2]; 10 g/ha) [%] | Percent inhibition GLYMX ([2]; 30 g/ha) [%] | Percent inhibition GLYMX ([2]; 100 g/ha) [%] | Percent inhibition GLYMX ([2]; 300 g/ha) [%] | Percent inhibition GLYMX ([2]; 900 g/ha) [%] | Pre-emergence activity (GR80) SOLNI [3] [g/ha] | Post-emergence activity GR80, ALOMY [4] | Pre-emergence activity (GR80) CHEAL [5] [g/ha] | Percent inhibition XANST ([6]; 10 g/ha) [%] | Percent inhibition XANST ([6]; 30 g/ha) [%] | Percent inhibition XANST ([6]; 100 g/ha) [%] | Percent inhibition XANST ([6]; 900 g/ha) [%] | Percent inhibition XANST ([6]; 300 g/ha) [%] | further results
C=C(CC(F)(F)S(=O)(=O)c1ncn(C(=O)N(CC)CC)n1)C[Si](C)(C)C [Example 20] | 100 | 0 | 0 | 0 | 0 | 30 | 100 | [empty] | 300 | 0 | 0 | 0 | 50 | – | –
CCN(CC)C(=O)n1cnc(S(=O)(=O)C(F)(F)SCCOC)n1 [Example 13] | 300 | 0 | 0 | 0 | 30 | 70 | 300 | [empty] | 300 | 0 | 0 | 0 | 30 | 0 | –
CCN(CC)C(=O)n1cnc(S(=O)(=O)C(F)(F)SCC(=O)OC)n1 [Example 11] | 300 | 0 | 0 | 0 | 10 | 30 | 300 | [empty] | 300 | 0 | 0 | 0 | 0 | 0 | –
CCN(CC)C(=O)n1cnc(S(=O)(=O)C(F)(F)SCc2ccccc2)n1 [Example 10] | 300 | 0 | 0 | 0 | 10 | 70 | 300 | [empty] | 300 | 0 | 0 | 0 | 10 | 0 | –
CCN(CC)C(=O)n1cnc(S(=O)(=O)C(F)(F)SC)n1 [Example 9] | 300 | – | 0 | 10 | 20 | 40 | 100 | [empty] | 300 | – | 0 | 0 | 60 | 30 | –
C=CCC(F)(F)S(=O)(=O)c1ncn(C(=O)N(CC)CC)n1 [Example 17, 1-(N,N-diethylcarbamoyl)-3-[(1,1-difluoro-3-butenyl)sulfonyl]-1,2,4-triazole] | 100 | – | – | – | – | – | 100 | [empty] | 100 | – | – | – | – | – | inhibition at 10 g/ha ([2]; Glycine max, 10 g/ha, read-out: Percent inhibition GLYMX): 0%; inhibition at 30 g/ha ([2]; Glycine max, 30 g/ha, read-out: Percent inhibition GLYMX): 0%; inhibition at 100 g/ha ([2]; Glycine max, 100 g/ha, read-out: Percent inhibition GLYMX): 0%; inhibition at 300 g/ha ([2]; Glycine max, 300 g/ha, read-out: Percent inhibition GLYMX): 20%; inhibition at 900 g/ha ([2]; Glycine max, 900 g/ha, read-out: Percent inhibition GLYMX): 80%; inhibition at 10 g/ha ([6]; Xanthium strumarium, 10 g/ha, read-out: Percent inhibition XANST): 0%; inhibition at 30 g/ha ([6]; Xanthium strumarium, 30 g/ha, read-out: Percent inhibition XANST): 0%; inhibition at 100 g/ha ([6]; Xanthium strumarium, 100 g/ha, read-out: Percent inhibition XANST): 0%; inhibition at 300 g/ha ([6]; Xanthium strumarium, 300 g/ha, read-out: Percent inhibition XANST): 20%; inhibition at 900 g/ha ([6]; Xanthium strumarium, 900 g/ha, read-out: Percent inhibition XANST): 100%
